Measurements from ChEMBL document CHEMBL3286100, “Synthesis and β-glucuronidase inhibitory activity of 2-arylquinazolin-4(3H)-ones” (Bioorg Med Chem, 2014).

Tests used:
PC-3 = test: cells; settings: Homo sapiens, PC-3, 72 h
Description: Cytotoxicity against human PC3 cells after 72 hrs by MTT assay

Beta-glucuronidase = molecular target: T1, Beta-glucuronidase (Homo sapiens, UniProt P08236); test: Inhibition of beta-glucuronidase activity (unknown origin) assessed as p-nitrophenol formation after 30 mins using p-nitrophenyl-beta-D-glucuronide as substrate by spectrophotometry
T1 sequence (P08236 whole entry): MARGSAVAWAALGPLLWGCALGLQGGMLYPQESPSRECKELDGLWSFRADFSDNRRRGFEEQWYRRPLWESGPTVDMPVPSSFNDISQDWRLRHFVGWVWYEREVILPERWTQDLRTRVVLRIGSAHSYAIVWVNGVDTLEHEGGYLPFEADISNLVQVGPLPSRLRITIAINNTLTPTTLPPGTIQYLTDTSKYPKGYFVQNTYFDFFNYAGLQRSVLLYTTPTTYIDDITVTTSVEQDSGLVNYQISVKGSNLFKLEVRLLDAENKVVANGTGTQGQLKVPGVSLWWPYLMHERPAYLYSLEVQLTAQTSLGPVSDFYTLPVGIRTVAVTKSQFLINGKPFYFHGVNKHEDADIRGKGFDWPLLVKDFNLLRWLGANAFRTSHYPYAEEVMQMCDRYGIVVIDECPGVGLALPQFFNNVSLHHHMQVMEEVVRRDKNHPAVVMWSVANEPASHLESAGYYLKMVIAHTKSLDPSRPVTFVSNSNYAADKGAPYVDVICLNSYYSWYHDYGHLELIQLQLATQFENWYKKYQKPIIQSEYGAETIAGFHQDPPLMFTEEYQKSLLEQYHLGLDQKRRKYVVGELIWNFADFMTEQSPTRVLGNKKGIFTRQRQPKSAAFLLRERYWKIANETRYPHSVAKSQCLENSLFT

Row | SMILES | IC50 (PC-3) | IC50 (Beta-glucuronidase)
1 | O=c1[nH]c(-c2ccc(Cl)cc2)nc2ccccc12 | > 30 µM | –
2 | O=c1[nH]c(-c2ccc([N+](=O)[O-])cc2)nc2ccccc12 | > 30 µM | 20.1 µM
3 | CN(C)c1ccc(-c2nc(O)c3ccccc3n2)cc1 | > 30 µM | 5.5 µM
4 | COc1ccc(-c2nc(O)c3ccccc3n2)cc1OC | > 30 µM | –
5 | O=c1[nH]c(-c2ccc(O)cc2)nc2ccccc12 | > 30 µM | 22.2 µM
6 | Cc1ccc(-c2nc3ccccc3c(=O)[nH]2)cc1 | > 30 µM | 173 µM
7 | O=c1[nH]c(-c2cccc([N+](=O)[O-])c2)nc2ccccc12 | > 30 µM | 50.4 µM
8 | COc1ccc(-c2nc3ccccc3c(=O)[nH]2)cc1O | > 30 µM | 2.8 µM
9 | O=c1[nH]c(-c2c(Cl)cccc2Cl)nc2ccccc12 | > 30 µM | –
10 | COc1cc(-c2nc3ccccc3c(=O)[nH]2)cc(OC)c1OC | > 30 µM | 120 µM
11 | CCOc1cc(-c2nc3ccccc3c(=O)[nH]2)ccc1O | > 30 µM | –
12 | O=c1[nH]c(-c2ccc(O)c(O)c2)nc2ccccc12 | > 30 µM | –
13 | O=c1[nH]c(-c2ccc(Cl)cc2Cl)nc2ccccc12 | > 30 µM | –
14 | CCOc1ccc(-c2nc3ccccc3c(=O)[nH]2)cc1 | > 30 µM | –
15 | COc1ccc(-c2nc3ccccc3c(=O)[nH]2)cc1 | > 30 µM | 1.1 µM

Further lines, results first:

Row | IC50 (PC-3) | IC50 (Beta-glucuronidase) | SMILES
16 | > 30 µM | 10 µM | O=c1[nH]c(-c2ccccc2O)nc2ccccc12
17 | > 30 µM | 198 µM | O=c1[nH]c(-c2cccc(O)c2)nc2ccccc12
18 | > 30 µM | – | O=c1[nH]c(-c2ccccc2[N+](=O)[O-])nc2ccccc12
19 | > 30 µM | – | O=c1[nH]c(-c2cc(O)ccc2O)nc2ccccc12
20 | > 30 µM | – | COc1cccc(-c2nc3ccccc3c(=O)[nH]2)c1O
21 | > 30 µM | – | CCOc1ccccc1-c1nc2ccccc2c(=O)[nH]1
22 | > 30 µM | – | COc1ccc(O)c(-c2nc3ccccc3c(=O)[nH]2)c1
23 | > 30 µM | – | O=c1[nH]c(-c2ccccc2Cl)nc2ccccc12
24 | > 30 µM | – | O=c1[nH]c(-c2c(O)cccc2Br)nc2ccccc12
